# Assay results as given in US20220031853A1, “HSP90-TARGETING CONJUGATES AND FORMULATIONS THEREOF” (TARVEDA THERAPEUTICS, INC., priority 2018, published 2022).
# Columns and labels:
# [1] = test system: LS174T (colon) tumor cells; assay: Tumor cell cytotoxicity assay (CellTiter-Glo), LS174T; type: cell-based; conditions: Homo sapiens, 72 hrs, CellTiter-Glo ATP levels, read-out: in vitro cytotoxicity IC50
# Experimental: (§1) Tumor cells were plated at 500-5,000 cells per well and incubated for 20-24 hrs at 37 °C at 5% CO2. Post cell incubation, compounds were reconstituted in DMSO to a stock concentration of 200 uM. A compound plate was then prepared containing a 10 point dilution in RPMI+10% FBS+0.25% DMSO. 5 uL of the dilution was then added for a final working concentration range of 10 uM to 0.0005 uM. Compounds and cells were then incubated for up to 72 hrs. Cells were then analyzed by CellTiter-Glo for ATP levels and percent inhibition calculated.
# as §1, with “BT474 (breast), LS174T (colon), or HCT-116 (colon) tumor” for “Tumor”, “2500” for “500-5,000”, “for” for “for up to”
# [2] = test system: BT474 (breast) tumor cells; assay: Tumor cell cytotoxicity assay (CellTiter-Glo), BT474; type: cell-based; conditions: Homo sapiens, BT-474, 72 hrs, CellTiter-Glo ATP levels, read-out: in vitro cytotoxicity IC50
# Experimental: as §1
# as §1, with “BT474 (breast), LS174T (colon), or HCT-116 (colon) tumor” for “Tumor”, “2500” for “500-5,000”, “for” for “for up to”
# [3] = test system: NCI-H460 cells (non-small cell lung cancer); assay: Tumor cell cytotoxicity assay (CellTiter-Glo), NCI-H460; type: cell-based; conditions: Homo sapiens, 48 hrs, CellTiter-Glo ATP levels, read-out: in vitro cytotoxicity IC50
# Experimental: as §1
# NCI-H460 cells (non-small cell lung cancer) were plated at 500 cells per well and incubated for 20-24 hrs at 37° C. at 5% CO2. Post cell incubation, compounds were reconstituted in DMSO to a stock concentration of 200 uM. A compound plate was then prepared containing a 10 point dilution in RPMI+10% FBS+0.25% DMSO. 5 uL of the dilution was then added for a final working concentration range of 10 uM to 0.0005 uM. Compounds and cells were then incubated for 48 hrs. Cells were then analyzed by CellTiter-Glo for ATP levels and percent inhibition calculated.
# [4] = test system: HCT-116 (colon) tumor cells; assay: Tumor cell cytotoxicity assay (CellTiter-Glo), HCT-116; type: cell-based; conditions: Homo sapiens; HCT-116 cells, 72 hrs, CellTiter-Glo ATP levels; read-out: in vitro cytotoxicity IC50
# Experimental: as §1
# as §1, with “BT474 (breast), LS174T (colon), or HCT-116 (colon) tumor” for “Tumor”, “2500” for “500-5,000”, “for” for “for up to”
# [5] = molecular target: T1, purified recombinant HSP90a (Homo sapiens, UniProt P07900); assay: HSP90a Assay Kit, fluorescence polarization competition with fluorescently labeled geldanamycin; conditions: read-out: HSP90 Binding Kd
# T1 construct: purchased
# Experimental: The bindings of the conjugates to HSP90 were studied with the HSP90a Assay Kit. The HSP90a Assay Kit is designed for identification of HSP90a inhibitors using fluorescence polarization. The assay is based on the competition of fluorescently labeled geldanamycin for binding to purified recombinant HSP90a. The key to the HSP90a Assay Kit is the fluorescently labeled geldanamycin. The fluorescently labeled geldanamycin is incubated with a sample containing HSP90a enzyme to produce a change in fluorescent polarization that can then be measured using a fluorescence reader.
SMILES,IC50 [1] [nM],IC50 [2] [nM],IC50 [3] [nM],IC50 [4] [nM],Kd [5] [nM]
CCNC(=O)c1nnc(-c2cc(C(C)C)c(O)cc2O)n1-c1ccc(CN2CCN(C(=O)Cc3ccc(OC(=O)N(CC)C4CCN(C(=O)c5ccc(NC(=O)Nc6ccc(-c7nc(N8CCOCC8)nc(N8CCOCC8)n7)cc6)cc5)CC4)cc3)CC2)cc1 [Compound 18],3370,1640,389,246,
CCNC(=O)c1nnc(-c2cc(C(C)C)c(O)cc2O)n1-c1ccc(CN2CCN(C(=O)Cc3ccc(OC(=O)N4CCN(c5ccc(-n6c(=O)n(C)c7cnc8ccc(-c9ccc(OC)nc9)cc8c76)cc5C(F)(F)F)CC4)cc3)CC2)cc1 [Compound 22],,,,,0.79
CCNC(=O)c1nnc(-c2cc(C(C)C)c(O)cc2O)n1-c1ccc(CN2CCN(C(=O)[C@H](N)Cc3ccc(OC(=O)N4CCN(c5ccc(-n6c(=O)n(C)c7cnc8ccc(-c9ccc(OC)nc9)cc8c76)cc5C(F)(F)F)CC4)cc3)CC2)cc1 [Compound 26],,,,,1.22
